Key:
293T cells = test: Cell viability of 293T cell lines treated with cisplatin (crystal violet); assay type: cell-based, human; settings: 293T cells stably expressing the construct vs empty vector pLNCX; cisplatin 0-100 μg/ml, 72 hours
Method: FIG. 2.—Cell viability and activation of the JNK and p38 death pathways in 293T cell lines: pLNCX and 24.2, treated with cisplatin. A) Cell viability. After seeding the 293T cells: expressing the empty vector (pLNCX) and GSE 24.2 (24.2) in 24-well plates, they were incubated with concentrations between 0-100 μg/ml of cisplatin. The cell viability was measured by means of the crystal violet technique after 72 hours of exposure to the drug. The data represent the mean of two experiments performed in quadruplicate. B) Activation kinetics. Subsequently, the activation of JNK and p38 was studied using antibodies that specifically recognise the active forms. As a load control, the levels of JNK-1 were detected.
FIG. 4.—Viability of the 293T cell lines: pLNCX, 24.2, DSK5′ and DSK treated with cisplatin. The cell lines described above (pLNCX and 24.2), the DSK 5′ cell line, which expresses a fragment of dyskerin described in the preceding figure, and a fourth one that overexpresses the complete cDNA of dyskerin (DSK) have been used. The viability was analyzed as shown in FIG. 1 A. The data represent the mean of two experiments performed in quadruplicate. […]
Growth curves. […] The number of cells was determined by estimating the absorbance at 595 nm. […]

hTERT promoter [1] = test: hTERT-luc reporter assay in VA13 cells; assay type: cell-based; settings: co-transfection with hTERT-luc, 24 h
Method: FIG. 10.—Telomerase activity and expression levels of hTERT and hTR in the cells of patients with dyskeratosis congenita and in VA13 cells transiently transfected with the 24.2 plasmid or the pLNCX empty vector. A) Telomerase activity measured by means of the TRAP assay in the cells of patients with dyskeratosis congenita (DC-1, DC-2 and DC-3) and in the carrier parent (DC-C) following electroporation of 45 μg of the pLNCX empty plasmid (−) or the pLNCX 24.2 vector (+) by 15 million cells. B) RT-PCR of the RNA from cells of one of the patients with dyskeratosis congenita, DC3 transfected with the empty vector and DC3 transfected with the 24.2 plasmid, using oligos specific for hTERT and hTR. As a starting RNA control, oligos for the amplification of GAPDH were used. C) Telomerase activity in VA13 cells. […] 24 hours later, the telomerase activity was analysed as described above, using dilutions of the protein extracts from each transfection. […] RNA levels were detected as described above. […] After 24 h of transfection, the luciferase activity was analyzed as described above. […]
Luciferase assay. The transcriptional regulation of hTERT was measured by means of the Luciferase reporter gene, preceded by a 3,402-pb sequence of the hTERT promoter. […] The cell lysates were centrifuged and the expression of luciferase was quantified with 10 μg of protein from the supernatant, using a Berthold luminometer. […]

hTERT promoter [2] = test: hTERT-luc reporter (luciferase) assay in 293T cells; assay type: cell-based, human; settings: 293T cells transiently transfected with construct vs empty vector; hTERT-luc, 24 hours
Method: FIG. 8.—Activity of the hTERT promoter in the 293T cell lines: pLNCX and 24.2 and in 293T cells transiently transfected with the pLNCX-24.2 construct and the pLNCX empty plasmid. A) Both the pLNCX and the 24.2 cells were transiently transfected with 0.25 μg of the hTERT-luc reporter vector. The cells were seeded in 60-mm plates. After 24 hours of transfection, the cells were lysed and the luciferase activity of 10 μg of total protein was quantified. As a transfection control, the cells were co-transfected with a reporter vector, CMV-Renilla. B) The 293T cells were transfected with the pLNCX vector and the 24.2 plasmid (5 μg), and both were co-transfected with 0.25 μg of the hTERT-luc reporter vector. After seeding the cells as in A, they were transfected with pLNCX and 24.2, and co-transfected with the hTERT-luc reporter vector; subsequently, they were treated as in A. As a transfection control, the CMV-Renilla reporter vector was used. The data correspond to the ratio of relative units of luciferase with respect to non-transfected cells. Each point represents the mean±the standard deviation obtained from 3 independent experiments. C) The 293T cells were transfected with the different GSE 24.4, DSK, TRUB I, TRUB II constructs and the pLNCX empty plasmid (5 μg), and co-transfected with 0.25 μg of the hTERT-luc reporter vector. The cells were seeded in 60-mm plates; after 24 hours of transfection, the cells were lysed and the luciferase activity of 10 μg of total protein was quantified. As a transfection control, the cells were co-transfected with a CMV-Renilla reporter vector. The data correspond to the ratio of relative units of luciferase with respect to non-transfected cells. Each point represents the mean±the standard deviation obtained from 3 independent experiments.
FIG. 9.—Activity of the hTERT promoter following treatment with cisplatin. A) Both the pLNCX cell line and the 24.2 cell line were transiently transfected with 0.25 μg of the hTERTIuc reporter vector. After 24 hours of transfection, they were treated with 3 μg/ml of cisplatin for 8 hours. The cells were seeded in 60-mm plates; after 24 hours of transfection and following treatment with cDDP, the cells were lysed and the luciferase activity of 10 μg of total protein was quantified. As a transfection control, the cells were co-transfected with a CMV-Renilla reporter vector. B) 293T cells which, after being transiently transfected with pLNCX and 24.2, were co-transfected with 0.25 μg of the hTERT-luc reporter vector and treated as in A. After seeding the cells as in A, they were transfected with pLNCX and 24.2, and co-transfected with the hTERT-luc reporter vector; subsequently, they were treated as in A. As a transfection control, the CMV-Renilla reporter vector was used. The data correspond to the ratio of relative units of luciferase with respect to non-transfected cells. Each point represents the mean±the standard deviation obtained from 3 independent experiments.
A) The 293T cells were co-transfected with different constructs (10 μg/DNA per million cells) and the hTERT-luc reporter (1 μg per million cells). The specified cell lines were co-transfected with the hTERT-luc reporter and different quantities of the Mad/myc expression vector. (B) The specified cell lines were co-transfected with the HIV-luc reporter and with different quantities of the Mad/myc expression vector. After 24 h of transfection, the cells were stimulated with 50 ng/ml of TNF-α for 6 hours and the luciferase activity was analysed as described above. CMV-Renilla (0.1 μg/ml per million cells) was used as a control for the transfection efficiency. The data represent the mean of two experiments performed in quadruplicate.
The pseudouridine synthase TRUB domain of dyskerin comprises two structural subdomains: the Trub I and II motifs (Zucchini et al., 2003). These two domains are critical to maintain the global protein structure of dyskerin. […]

DSK 5′: construct containing the first 500 nucleotides of human dyskerin, cloned in pLNCX [reference compound]
cell viability in response to cisplatin (293T cells): do not have any activity whatsoever

Trub I: fragment of GSE 24.2 containing the Trub I domain (SEQ ID NO11, peptide SEQ ID NO12) (DNA GGTTTCATTAATCTTGACAAGCCCTCTAACCCCTCTTCCCATGAGGTGGTAGCC; expressed or natural sequence; listed as Homo sapiens)
activity of the hTERT promoter in VA13 cells (hTERT promoter [1]): activated the hTERT promoter
activity of the hTERT promoter, transient expression (hTERT promoter [2]): act by activating the expression of the hTERT promoter

B1: Trub II: fragment of GSE 24.2 containing the Trub II domain (SEQ ID NO13, peptide SEQ ID NO14) (nucleic acid, listed as Homo sapiens)
DNA: CACAGTGGTACTCTGGATCCCAAGGTGACTGGTTGTTTAATCGTGTGCATAGAACGAGCCACTCGCTTGGTGAAG
modifications: expressed or natural sequence
activity of the hTERT promoter, transient expression (hTERT promoter [2]): act by activating the expression of the hTERT promoter

— patent US9587002B2, “Sequence of nucleotides and peptides GSE 24.2 of dyskerin, which can induce telomerase activity, method for obtaining same, therapeutic compositions and applications thereof” (CONSEJO SUPERIOR DE INVESTIGACIONES CIENTIFICAS, priority 2005, dated 2017)
